Laboratory results from patent publication US20230192686A1, “1H-PYRROLO[2,3-B]PYRIDINES AND PREPARATION AND USES THEREOF” (BioSplice Therapeutics, Inc., priority 2021, published 2023).

Key:
[1] = system: Tau phosphorylation at Thr212 (pThr212); experiment: Tau phosphorylation assay, phosphoTau (Thr212) AlphaLISA in HEK293T cells transfected with DYRK1A and MAPT; format: cell-based; conditions: HEK-293T; HEK293T cells transfected with human DYRK1A and MAPT; compound treatment 18-24 hours; read-out: pTau (Thr212) EC50
Procedure: Representative compounds were screened using the assay procedure for tau phosphorylation activity described below.
HEK293T cells (ATCC, CRL3216) cultured in DMEM (Thermo Fisher Scientific, 10566024) supplemented with 10% FBS (Corning, 35-011-CV) and Penicillin/Streptomycin (Thermo Fisher Scientific, 15140163) were seeded in a 75 cm^2 flask at 8.1×10^6 cells/flask. The HEK293T cells were then transiently transfected with 5 μg DYRK1A (NM_001396) human untagged clone (OriGene, SC314641) and 2.5 μg MAPT (441 a.a. Tau gene) (NM_005910) human untagged clone (OriGene, TP313312) using Lipofectamine 3000 (Thermo Fisher Scientific, L30000015) and incubated for 20-30 hours in a humidified incubator at 37° C. and 5% CO2. Post-incubation, HEK293T cells transfected with the DYRK1A and MAPT expression vectors were harvested and seeded in BioCoat poly-D lysine coated 96-well plates (Corning, 354461) at 3×10^4 cells/well.
The above synthesized compounds were screened using the cell assay procedure to assess decreased Tau phosphorylation at Thr212 (pThr212) described below.
Each compound was dissolved in DMSO (Sigma-Aldrich, D8418-100 mL) as a 10 mM stock. 10 mM stocks were serially diluted 1:3, 10-point dose-response curve and added to the cells with a final concentration ranging from 20 μM to 1.1 nM. Cell were treated with compounds in duplicate and incubated for 18-24 hours in a humidified incubator at 37° C. and 5% CO2.
Following the overnight compound treatment, cells were lysed with 1× Alpha Surefire Ultra Lysis Buffer (Perkin Elmer, ALSU-LB-100ML) complemented with 1× Halt Phosphatase Inhibitor Cocktail (Thermo Fisher Scientific, 78427) and 1× Halt Protease Inhibitor Cocktail (Thermo Fisher Scientific, 78438). Lysates were spun down at 12,000 g for 10 min to remove any cellular debris and 5 μL of lysates were dispensed into a 384-well Opti-Plate (Perkin Elmer, 6007290) for the measurement of Tau phosphorylation in the phosphoTau (Thr212) AlphaLISA assay. Donor antibody, biotinylated HT7Tau (Thermo Fisher Scientific, MN1000B), and acceptor antibody, pThr212Tau (Thermo Fisher Scientific, 44740G) were both added to the cell lysates at a final concentration of 3 nM and incubated for 1 hour at room temperature. Following incubation of the lysates with the donor and acceptor antibodies, anti-rabbit IgG(Fc specific) AlphaLISA acceptor beads (Perkin Elmer, AL104C) were added at a 10 ug/mL final concentration and incubated for 1 hour at room temperature protected from light. Lastly, AlphaScreen streptavidin donor beads (PerkinElmer, 6760002) were added at 40 ug/mL final concentration and incubated for 1 hour at room temperature protected from light. Plates were read at Ex=[…], and Em=615 nm on the EnVision Multilabel Plate Reader (Perkin Elmer) phospho-Tau (Thr212) AlphaLISA signal was used to plot, draw the curve fitting, and determine each compound's EC50 in Prism (GraphPad).

[2] = target: recombinant DYRK1A kinase (Homo sapiens, UniProt Q13627); experiment: DYRK1A kinase assay (Ser/Thr 18 peptide Z-lyte FRET); format: biochemical; conditions: DYRK1A kinase activity; 15 μM ATP, 4 μM Ser/Thr peptide 18, one hour at room temperature
How it was run: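 Recombinant DYRK1A at 0.25 μg/mL was incubated 1 h at room temperature with 15 μM ATP, 4 μM Ser/Thr 18 peptide and compound, in duplicate, 11-point series from 10 μM. Phosphorylation was read by Z-lyte FRET after 1 h protease development, as the coumarin/fluorescein emission ratio converted to % phosphorylation. IC50 by non-linear regression.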

| EC50 [1] [nM] | EC50 [2] [nM] | SMILES |
| --- | --- | --- |
| 25 | 12 | O=C1NCc2cc(-c3c[nH]c4nc(C5CC5)ccc34)ccc21 [Compound 1522, 5-(6-Cyclopropyl-1H-pyrrolo[2,3-b]pyridin-3-yl)isoindolin-1-one] |
| 73 | 10 | O=C1NCCc2cc(-c3c[nH]c4nc(C5CC5)ccc34)ccc21 [Compound 1526, 6-(6-Cyclopropyl-1H-pyrrolo[2,3-b]pyridin-3-yl)-3,4-dihydroisoquinolin-1(2H)-one] |
| 413 | 28 | O=C1NCCOc2cc(-c3c[nH]c4nc(C5CC5)ccc34)ccc21 [Compound 1529, 8-(6-Cyclopropyl-1H-pyrrolo[2,3-b]pyridin-3-yl)-3,4-dihydrobenzo[f][1,4] oxazepin-5(2H)-one] |
| 393 | 24 | c1cnc2ccc(-c3c[nH]c4nc(C5CC5)ccc34)cc2c1 [Compound 1530, 6-(6-Cyclopropyl-1H-pyrrolo[2,3-b]pyridin-3-yl)quinoline] |
| 132 | 4 | CN1CCC(NC(=O)c2cnn3ccc(-c4c[nH]c5nc(C6CCCC6)ccc45)cc23)CC1 [Compound 1598, 5-(6-Cyclopentyl-1H-pyrrolo[2,3-b]pyridin-3-yl)-N-(1-methylpiperidin-4-yl)pyrazolo[1,5-a]pyridine-3-carboxamide] |
| 199 | 6 | CN1CCC(NC(=O)c2cnn3ccc(-c4c[nH]c5nc(CC6CCC6)ccc45)cc23)CC1 [Compound 1640, 5-(6-(Cyclobutylmethyl)-1H-pyrrolo[2,3-b]pyridin-3-yl)-N-(1-methylpiperidin-4-yl)pyrazolo[1,5-a]pyridine-3-carboxamide] |
| 540 | 18 | FC(F)Oc1ccc2c(-c3ccc4nccn4c3)c[nH]c2n1 [Compound 1708, 6-(6-(Difluoromethoxy)-1H-pyrrolo[2,3-b]pyridin-3-yl)imidazo[1,2-a] pyridine] |
| 210 | 9 | CCOc1ccc2c(-c3ccc4nccn4c3)c[nH]c2n1 [Compound 1750, 6-(6-Ethoxy-1H-pyrrolo[2,3-b]pyridin-3-yl)imidazo[1,2-a]pyridine] |
| 305 | 15 | CCOc1ccc2c(-c3ccc4ncccc4c3)c[nH]c2n1 [Compound 1782, 6-(6-Ethoxy-1H-pyrrolo[2,3-b]pyridin-3-yl)quinoline] |
| 8 | 7 | CN1CCC(NC(=O)c2cnn3ccc(-c4c[nH]c5nc(-c6ccccc6)ccc45)cc23)CC1 [Compound 2018, N-(1-Methylpiperidin-4-yl)-5-(6-phenyl-1H-pyrrolo[2,3-b]pyridin-3-yl)pyrazolo[1,5-a]pyridine-3-carboxamide] |
| 622 | 47 | CN1CCN(C(=O)c2cnn3ccc(-c4c[nH]c5ncc(C#N)cc45)cc23)CC1 [Compound 2046, 3-(3-(4-Methylpiperazine-1-carbonyl)pyrazolo[1,5-a]pyridin-5-yl)-1H-pyrrolo[2,3-b]pyridine-5-carbonitrile] |
| 6240 | 51 | O=C(Nc1ccncc1)c1ccc2c(-c3ccc4ncccc4c3)c[nH]c2n1 [Compound 2054, N-(Pyridin-4-yl)-3-(quinolin-6-yl)-1H-pyrrolo[2,3-b]pyridine-6-carboxamide] |

Continued, compound first:

| SMILES | EC50 [1] [nM] | EC50 [2] [nM] |
| --- | --- | --- |
| Cc1nc2ncc(-c3c[nH]c4ncccc34)cc2n1C(C)C [Compound 25, 1-Isopropyl-2-methyl-6-(1H-pyrrolo[2,3-b]pyridin-3-yl)-1H-imidazo[4,5-b]pyridine] | 16 | 1 |
| Cn1cc(-c2cnn3ccc(-c4c[nH]c5ncccc45)cc23)cn1 [Compound 37, 3-(3-(1-Methyl-1H-pyrazol-4-yl)pyrazolo[1,5-a]pyridin-5-yl)-1H-pyrrolo[2,3-b]pyridine] | 6 | 1 |
| CN1CCC(Nc2cnc3ccc(-c4c[nH]c5ncccc45)cc3n2)CC1 [Compound 92, N-(1-Methylpiperidin-4-yl)-7-(1H-pyrrolo[2,3-b]pyridin-3-yl) quinoxalin-2-amine] | 31 | 5 |
| O=C(c1cnn2ccc(-c3c[nH]c4ncccc34)cc12)N1CCC(N2CCOCC2)CC1 [Compound 107, (5-(1H-Pyrrolo[2,3-b]pyridin-3-yl)pyrazolo[1,5-a]pyridin-3-yl)(4-morpholinopiperidin-1-yl)methanone] | 396 | 8 |
| CN1CCN(C(=O)c2cnn3ccc(-c4c[nH]c5ncc(Cl)cc45)cc23)CC1 [Compound 215, (5-(5-Chloro-1H-pyrrolo[2,3-b]pyridin-3-yl)pyrazolo[1,5-a]pyridin-3-yl)(4-methylpiperazin-1-yl)methanone] | 258 | 12 |
| CN1CCN(c2ccc(NC(=O)c3cnc4[nH]cc(-c5ccc6nccnc6c5)c4c3)cn2)CC1 [Compound 817, N-(6-(4-Methylpiperazin-1-yl)pyridin-3-yl)-3-(quinoxalin-6-yl)-1H-pyrrolo[2,3-b]pyridine-5-carboxamide] | 210 | 8 |
| c1cncc(-c2cnc3[nH]cc(-c4ccc5ncccc5c4)c3c2)c1 [Compound 1194, 6-(5-(Pyridin-3-yl)-1H-pyrrolo[2,3-b]pyridin-3-yl)quinoline] | 2 |  |
| Cc1ccc2c(-c3ccc4ncccc4c3)c[nH]c2n1 [Compound 1488, 6-(6-Methyl-1H-pyrrolo[2,3-b]pyridin-3-yl)quinoline] | 39 | 2 |
| c1cn2cc(-c3c[nH]c4nc(C5CC5)ccc34)ccc2n1 [Compound 1498, 6-(6-Cyclopropyl-1H-pyrrolo[2,3-b]pyridin-3-yl)imidazo[1,2-a] pyridine] | 441 | 47 |
| Cc1nc2c(F)cc(-c3c[nH]c4nc(C5CC5)ccc34)cc2n1C1CCN(C)CC1 [Compound 1502, 6-(6-cyclopropyl-1H-pyrrolo[2,3-b]pyridin-3-yl)-4-fluoro-2-methyl-1-(1-methylpiperidin-4-yl)-1H-benzo[d]imidazole] | 936 | 5 |
| c1cn2nc(-c3c[nH]c4nc(C5CC5)ccc34)ccc2n1 [Compound 1508, 6-(6-Cyclopropyl-1H-pyrrolo[2,3-b]pyridin-3-yl)imidazo[1,2-b] pyridazine] | 321 | 29 |
| C[C@@H](NC(=O)c1cnn2ccc(-c3c[nH]c4nc(C5CC5)ccc34)cc12)C(F)(F)F [Compound 1513, (R)-5-(6-Cyclopropyl-1H-pyrrolo[2,3-b]pyridin-3-yl)-N-(1,1,1-trifluoropropan-2-yl)pyrazolo[1,5-a]pyridine-3-carboxamide] | 374 | 91 |
| CN1CCC(NC(=O)c2cnn3ccc(-c4c[nH]c5nc(C6CC6)ccc45)cc23)CC1 [Compound 1514, 5-(6-Cyclopropyl-1H-pyrrolo[2,3-b]pyridin-3-yl)-N-(1-methylpiperidin-4-yl)pyrazolo[1,5-a]pyridine-3-carboxamide] | 82 | 5 |
